Source: patent US12215100B2, “Anticancer compounds” (Pharma Mar, S.A., priority 2018, dated 2025)

Tests used:
Assay type in all cases: cell-based, human
A549 = assay: SRB colorimetric cytotoxicity assay, A549; settings: Homo sapiens, lung carcinoma (NSCLC)
Source text: (§1) The aim of this assay is to evaluate the in vitro cytostatic (ability to delay or arrest tumor cell growth) or cytotoxic (ability to kill tumor cells) activity of the samples being tested.
(§2) A colorimetric assay, using sulforhodamine B (SRB) reaction has been adapted to provide a quantitative measurement of cell growth and viability (following the technique described by V. Vichai and K. Kirtikara (2006) Nature Protoc. 1, 1112-1116.)
(§3) This form of assay employs 96-well cell culture microplates. All the cell lines used in this study were obtained from the American Type Culture Collection (ATCC), unless otherwise indicated, and derive from different types of human cancer.
(§4) Cells were maintained in Dulbecco's Modified Eagle Medium (DMEM) (for A549, HT-29 and MDA-MB-231) or RPMI (for PSN-1) supplemented with 10% Fetal Bovine Serum (FBS), 2 mM L-glutamine, 100 U/mL penicillin and 100 U/mL streptomycin at 37° C., 5% CO2 and 98% humidity. For the experiments, cells were harvested from subconfluent cultures using trypsinization and resuspended in fresh medium before counting and plating.
(§5) Cells were seeded in 96 well microtiter plates, at 5×10^3 cells per well in aliquots of 150 μL, and allowed to attach to the plate surface for 18 hours (overnight) in drug free medium. After that, one control (untreated) plate of each cell line was fixed (as described below) and used for time zero reference value. […] After 72 hours treatment, the antitumor effect was measured by using the SRB methodology: Briefly, cells were washed twice with PBS, fixed for 15 min in 1% glutaraldehyde solution at room temperature, rinsed twice in PBS, and stained in 0.4% SRB solution for 30 min at room temperature. Cells were then rinsed several times with 1% acetic acid solution and air-dried at room temperature. SRB was then extracted in 10 mM trizma base solution and the absorbance measured in an automated spectrophotometric plate reader at 490 nm. Effects on cell growth and survival were estimated by applying the NCI algorithm (Boyd M R and Pauli K D. Drug Dev Res. 1995, 34, 91-104).
(§6) Using the mean±SD of triplicates, a dose-response curve was automatically generated using nonlinear regression analysis to a 4-parameter logistic curve. Three reference parameters were calculated (NCI algorithm) by automatic interpolation: GI50=compound concentration that produces 50% cell growth inhibition, as compared to control cultures; TGI=total cell growth inhibition (cytostatic effect), as compared to control cultures, and LC50=compound concentration that produces 50% net cell killing (cytotoxic effect).

PSN-1 = assay: SRB colorimetric cytotoxicity assay, PSN-1; settings: Homo sapiens, pancreatic adenocarcinoma
Source text: as §1, §2, §3, §4, §5, §6

MDA-MB-231 = assay: SRB colorimetric cytotoxicity assay, MDA-MB-231; settings: Homo sapiens, breast adenocarcinoma
Source text: as §1, §2, §3, §4, §5, §6

HT29 = assay: SRB colorimetric cytotoxicity assay, HT29; settings: Homo sapiens, colorectal adenocarcinoma
Source text: as §1, §2, §3, §4, §5, §6

[1] = MDA-MB-231, 72 h, 72 hours treatment
[2] = HT-29, 72 h, 72 hours treatment

Row | Structure (SMILES) | GI50 (A549; A549, 72 h, 72 hours treatment) | GI50 (PSN-1; PSN1, 72 h, 72 hours treatment) | GI50 (MDA-MB-231; [1]) | GI50 (HT29; [2]) | GI50 (A549; A549, 72 hours treatment) | GI50 (PSN-1; PSN1, 72 hours treatment) | GI50 (MDA-MB-231; MDA-MB-231, 72 hours treatment) | GI50 (HT29; HT-29, 72 hours treatment)
1 | C=CCOc1cc([C@@H](CCC)NC(=O)[C@]2(C)CSC(/C(C)=N/O[C@H]3O[C@H](CO)[C@@H](O)[C@H](O)[C@@H]3O)=N2)oc(=O)c1 [Compound 112] | 4.04 µM | 1.23 µM | 2.11 µM | 1.11 µM | – | – | – | –
2 | C=CCOc1cc([C@@H](CCC)NC(=O)[C@]2(C)CSC(/C(C)=N/O[Si](c3ccccc3)(c3ccccc3)C(C)(C)C)=N2)oc(=O)c1 [Compound 113] | – | – | – | – | 0.0152 µM | 0.0147 µM | 0.00836 µM | 0.00557 µM
3 | C=CCOc1cc([C@@H](CCC)NC(=O)[C@]2(C)CSC(/C(C)=N/OCCCCO)=N2)oc(=O)c1 [Compound 115] | 0.0111 µM | 0.0136 µM | 0.0119 µM | 0.00584 µM | – | – | – | –
4 | CCC[C@@H](NC(=O)[C@]1(C)CSC(/C(C)=N/CCCNC(=O)OC(C)(C)C)=N1)c1cc(OCC2CC2)cc(=O)o1 [Compound 116] | 0.302 µM | 0.302 µM | 0.195 µM | 0.249 µM | – | – | – | –
5 | C=CCOc1cc([C@@H](CCC)NC(=O)[C@]2(C)CSC(C(C)N)=N2)oc(=O)c1 (some centres unmarked) [Compound 117] | 3.02 µM | 4.88 µM | 4.65 µM | 3.49 µM | – | – | – | –
6 | CCC[C@@H](NC(=O)[C@]1(C)CSC(C(C)=O)=N1)c1cccc(=O)o1 [Compound 127] | > 29.7 µM | 18.7 µM | 8.62 µM | 14 µM | – | – | – | –
7 | CCC[C@@H](NC(=O)[C@]1(C)CSC(/C(C)=N/O)=N1)c1cccc(=O)o1 [Compound 128] | 0.0911 µM | 0.0882 µM | 0.285 µM | 0.105 µM | – | – | – | –
8 | CCC[C@@H](NC(=O)[C@@]1(C)CSC(C(C)(OCC)OCC)=N1)c1cc(OC)cc(=O)o1 [Compound 129] | 6.13 µM | 5.45 µM | 3.86 µM | 3.63 µM | – | – | – | –
9 | C=CCOc1cc([C@@H](CCC)NC(=O)[C@@]2(C)CSC(C(C)(OCC)OCC)=N2)oc(=O)c1 [Compound 130] | 0.214 µM | 0.364 µM | 0.364 µM | 0.206 µM | – | – | – | –
10 | CCC[C@@H](NC(=O)[C@@]1(C)CSC(C(C)(OCC)OCC)=N1)c1cc(OCC2CC2)cc(=O)o1 [Compound 131] | 0.208 µM | 0.312 µM | 0.333 µM | 0.196 µM | – | – | – | –
11 | C=CCOc1cc([C@@H](CCC)NC(=O)[C@@]2(C)CSC(C(C)=O)=N2)oc(=O)c1 [Compound 133] | 9.43 µM | 5.61 µM | 3.82 µM | 4.59 µM | – | – | – | –
12 | CCC[C@@H](NC(=O)[C@@]1(C)CSC(/C(C)=N/O)=N1)c1cc(OC)cc(=O)o1 [Compound 135] | 2.46 µM | 1.26 µM | 2.33 µM | 1.26 µM | – | – | – | –
13 | C=CCOc1cc([C@@H](CCC)NC(=O)[C@@]2(C)CSC(/C(C)=N/O)=N2)oc(=O)c1 [Compound 136] | 0.0712 µM | 0.081 µM | 0.0785 µM | 0.0859 µM | – | – | – | –
14 | CCC[C@@H](NC(=O)[C@@]1(C)CSC(/C(C)=N/O)=N1)c1cc(OCC2CC2)cc(=O)o1 [Compound 137] | 0.126 µM | 0.145 µM | 0.149 µM | 0.109 µM | – | – | – | –
15 | COc1cc([C@@H](CCC(F)(F)F)NC(=O)[C@]2(C)CSC(/C(C)=N/O)=N2)oc(=O)c1 [Compound 140] | 0.666 µM | 0.643 µM | 0.459 µM | 0.344 µM | – | – | – | –
16 | COc1cc([C@@H](CCC(F)(F)F)NC(=O)[C@]2(C)CSC(/C(C)=N\O)=N2)oc(=O)c1 [Compound 140a] | 2.53 µM | 2.76 µM | 2.27 µM | 1.52 µM | – | – | – | –

Row | Structure (SMILES) | GI50 (A549; A549, 72 h, 72 hours treatment) | GI50 (PSN-1; PSN1, 72 h, 72 hours treatment) | GI50 (MDA-MB-231; [1]) | GI50 (HT29; [2]) | GI50 (A549; A549, 72 hours treatment) | GI50 (PSN-1; PSN1, 72 hours treatment) | GI50 (MDA-MB-231; MDA-MB-231, 72 hours treatment) | GI50 (HT29; HT-29, 72 hours treatment)
17 | C#CCOc1cc([C@@H](CCC)NC(=O)[C@]2(C)CSC(C(C)=NO)=N2)oc(=O)c1CC#C [Compound 141] | 0.225 µM | 0.338 µM | 0.248 µM | 0.178 µM | – | – | – | –
18 | C=CCOc1cc([C@@H](CCC)NC(=O)[C@]2(C)CSC(/C(C)=N/OCCOCCOCCOCC)=N2)oc(=O)c1 [Compound 144] | 0.0722 µM | 0.125 µM | 0.162 µM | 0.0652 µM | – | – | – | –
19 | CCC[C@@H](NC(=O)[C@]1(C)CSC(/C(C)=N/OCCOCCOCCOCC)=N1)c1cc(OCC2CC2)cc(=O)o1 [Compound 145] | 0.0481 µM | 0.112 µM | 0.122 µM | 0.0619 µM | – | – | – | –
20 | CCC[C@@H](NC(=O)[C@]1(C)CSC(/C(C)=N/OCCCCO[Si](C)(C)C(C)(C)C)=N1)c1cc(OC)cc(=O)o1 [Compound 146] | – | – | – | – | 1.94 µM | 2.11 µM | 2.82 µM | 1.02 µM
21 | CCC[C@@H](NC(=O)[C@]1(C)CSC(/C(C)=N/OCCCCO)=N1)c1cc(OC)cc(=O)o1 [Compound 147] | 0.148 µM | 0.243 µM | 0.287 µM | 0.137 µM | – | – | – | –
22 | CCC[C@@H](NC(=O)[C@]1(C)CSC(/C(C)=N/OCCCCO[Si](C)(C)C(C)(C)C)=N1)c1cc(OCC2CC2)cc(=O)o1 [Compound 148] | – | – | – | – | 0.263 µM | 0.296 µM | 0.247 µM | 0.0592 µM
23 | CCC[C@@H](NC(=O)[C@]1(C)CSC(/C(C)=N/OCCCCO)=N1)c1cc(OCC2CC2)cc(=O)o1 [Compound 149] | 0.00669 µM | 0.0136 µM | 0.00891 µM | 0.00628 µM | – | – | – | –
24 | CCC[C@@H](NC(=O)[C@]1(C)CSC(/C(C)=N/OCCCS)=N1)c1cc(OC)cc(=O)o1 [Compound 151] | 0.856 µM | 1.21 µM | 1.34 µM | 0.505 µM | – | – | – | –
25 | C=CCOc1cc([C@@H](CCC)NC(=O)[C@]2(C)CSC(/C(C)=N/OCCCNC(=O)OC(C)(C)C)=N2)oc(=O)c1 [Compound 152] | 0.0195 µM | 0.0213 µM | 0.0266 µM | 0.0195 µM | – | – | – | –
26 | C#CCOc1cc([C@@H](CCC)NC(=O)[C@]2(C)CSC(/C(C)=N/OCCCNC(=O)OC(C)(C)C)=N2)oc(=O)c1 [Compound 155] | 0.0374 µM | 0.073 µM | 0.0748 µM | 0.0409 µM | – | – | – | –
27 | CCC[C@@H](NC(=O)[C@]1(C)CSC(/C(C)=N/OCCCNC(=O)OC(C)(C)C)=N1)c1cc(OCC2CC2)cc(=O)o1 [Compound 157] | 0.00537 µM | 0.00554 µM | 0.00537 µM | 0.00502 µM | – | – | – | –
28 | CCC[C@@H](NC(=O)[C@]1(C)CSC(/C(C)=N/OCCC2COC(C)(C)O2)=N1)c1cc(OCC2CC2)cc(=O)o1 (some centres unmarked) [Compound 159] | 0.0491 µM | 0.0509 µM | 0.0673 µM | 0.0637 µM | – | – | – | –
29 | C=CCOc1cc([C@@H](CCC)NC(=O)[C@]2(C)CSC(C(C)=NOCCCCN3CCOCC3)=N2)oc(=O)c1 [Compound 161] | 0.00496 µM | 0.00513 µM | 0.00649 µM | 0.00547 µM | – | – | – | –
30 | C=CCOc1cc([C@@H](CCC)NC(=O)[C@]2(C)CSC(C(C)=NOCCCN3CCN(C)CC3)=N2)oc(=O)c1 [Compound 163] | 0.0161 µM | 0.0164 µM | 0.0166 µM | 0.0156 µM | – | – | – | –
31 | C=CCOc1cc([C@@H](CCC)NC(=O)[C@]2(C)CSC(/C(C)=N/OC(=O)COCCOCCOC)=N2)oc(=O)c1 [Compound 164] | 0.00652 µM | 0.00652 µM | 0.00722 µM | 0.00458 µM | – | – | – | –
32 | C=CCOc1cc([C@@H](CCC)NC(=O)[C@]2(C)CSC(/C(C)=N/OC(=O)CCCCCNC(=O)OC(C)(C)C)=N2)oc(=O)c1 [Compound 165] | 0.00548 µM | 0.00644 µM | 0.00741 µM | 0.00532 µM | – | – | – | –
